Experimental data as given in patent publication US8318731B2, “Pyrrolopyrimidines” (Janssen Pharmaceutica NV, priority 2007, dated 2012).

Key:
[1] = test system: PC3; test: Cellular proliferation assay (Alamar blue), PC3; assay type: cell-based; settings: Homo sapiens, PC-3, PC-3 cells; 10% FCS; 72 h with compound; Alamar blue 24 h; read-out: pIC50 PC-3 (converted)
Procedure: (§1) Cellular proliferation of these compounds was tested on a panel of different cell lines in the presence of 10% FCS serum (37° C. and 5% (v/v) CO2). In a first step these cells were seeded and incubated for 24 hours in the absence of compound. In the second step the cells were incubated for 72 hours with the compounds to be tested for 72 hours. The viable cell number was finally assessed in a standard Alamar blue cell viability assay.
(§2) The viable cell number was assessed by incubation for either 4 h (HCT-116, H1299) 6 h (U87-MG) or 24 h (A2780, PC3, MDA-MB-231) with Alamar blue (Resazurin 9 μg/ml, K-Ferrocyanide 90 μM, K-Ferricyanide 90 μM) and the converted fluorescent product was quantified on a fluorescent plate readed (544 nm/590 nm). Effect of the compounds is calculated as of on control cells.

[2] = test system: A2780; test: Cellular proliferation assay (Alamar blue), A2780; assay type: cell-based; settings: Homo sapiens, A2780, A2780 cells; 10% FCS; 72 h with compound; Alamar blue 24 h; read-out: pIC50 A2780 (converted)
Procedure: as §1, §2

[3] = target: T1, PLK4 (h) (Homo sapiens, UniProt O00444); test: PLK-4 human kinase scintillation proximity assay (SPA); assay type: biochemical; settings: 1 μM ATP, 60 minutes at r.t., read-out: PLK4 pIC50 (converted)
T1 sequence (O00444 1-970): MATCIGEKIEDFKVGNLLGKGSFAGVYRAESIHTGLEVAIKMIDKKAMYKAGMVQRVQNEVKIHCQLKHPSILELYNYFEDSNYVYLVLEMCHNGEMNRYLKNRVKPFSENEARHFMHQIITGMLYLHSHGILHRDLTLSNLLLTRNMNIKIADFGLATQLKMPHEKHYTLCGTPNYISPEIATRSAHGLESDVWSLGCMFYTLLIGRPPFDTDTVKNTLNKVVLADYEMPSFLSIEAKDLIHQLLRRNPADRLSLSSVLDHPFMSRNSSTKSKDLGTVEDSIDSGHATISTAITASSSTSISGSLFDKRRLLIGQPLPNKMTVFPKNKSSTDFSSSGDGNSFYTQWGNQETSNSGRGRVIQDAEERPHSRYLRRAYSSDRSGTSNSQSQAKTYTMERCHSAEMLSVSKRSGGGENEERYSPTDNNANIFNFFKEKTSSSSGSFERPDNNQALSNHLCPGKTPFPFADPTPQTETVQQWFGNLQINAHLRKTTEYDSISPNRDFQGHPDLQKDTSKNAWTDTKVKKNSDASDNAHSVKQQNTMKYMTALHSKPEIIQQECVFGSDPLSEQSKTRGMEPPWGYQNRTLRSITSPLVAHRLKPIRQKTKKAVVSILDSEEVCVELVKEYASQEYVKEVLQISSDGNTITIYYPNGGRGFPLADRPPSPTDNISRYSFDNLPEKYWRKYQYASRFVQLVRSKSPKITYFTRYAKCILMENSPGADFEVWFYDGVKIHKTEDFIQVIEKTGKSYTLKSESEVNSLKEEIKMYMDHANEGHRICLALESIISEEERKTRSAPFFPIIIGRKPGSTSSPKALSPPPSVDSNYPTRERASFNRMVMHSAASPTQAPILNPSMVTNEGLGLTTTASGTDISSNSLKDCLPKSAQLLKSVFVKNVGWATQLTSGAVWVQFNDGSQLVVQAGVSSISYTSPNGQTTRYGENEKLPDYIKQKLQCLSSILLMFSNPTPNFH
Procedure: The in vitro inhibition of a panel of kinases was assessed using either the scintillation proximity assay (SPA) as described by Cook, N. D. et al., Advances in Experimental Medicine and Biology (1991), 36; p. 525-528.
In the SPA technology the activity of the kinase of interest is measured using an appropriate biotinylated substrate that is incubated with the aforementioned kinase protein in the presence of (^33P) radiolabeled ATP. (^33P) Phosphorylation of the substrate is subsequently measured through binding of the phosphorylated substrate to streptavidine coated beads that are based on the scintillant poly(vinyl toluene) (PVT-Beads). The scintillation intensity is detected by imaging on Leadseeker.
All kinases are pre-diluted to a 10× working concentration prior to addition into the assay. The composition of the dilution buffer for each kinase is detailed below.
In a final reaction volume of 30 μl, PLK4 (h) (19 μg/ml) is incubated with 50 mM Hepes pH 8.0, 10 mM MgCl2, 50 mM NaCl, 1 mM NaF, 1 mM DTT, 10 μM of peptide Biotin-RPRGQRDSSYYWE-OH, 1 μM ATP and 2 nM [γ-^33P-ATP] (6.0 μCi/ml). After incubation of 60 minutes at r.t., the reaction is stopped by addition of 40 μL of stop solution containing 8.7 mM EDTA, BSA 0.17%, 0.17% Triton X-100, 1.7 mg/ml SPA beads (GE-healthcare). The plate is centrifuged and read for Scintillation imaging on Leadseeker.

[4] = test system: U87-MG; test: Cellular proliferation assay (Alamar blue), U87-MG; assay type: cell-based; settings: Homo sapiens, U-87 MG; U87-MG cells; 10% FCS; 72 h with compound; Alamar blue 6 h; read-out: pIC50 U87MG (converted)
Procedure: as §1, §2

[5] = test system: MDA-MB-231; test: Cellular proliferation assay (Alamar blue), MDA-MB-231; assay type: cell-based; settings: Homo sapiens, MDA-MB-231, MDA-MB-231 cells; 10% FCS; 72 h with compound; Alamar blue 24 h; read-out: pIC50 MDA/MB231 (converted)
Procedure: as §1, §2

[6] = test system: HCT-116; test: Cellular proliferation assay (Alamar blue), HCT-116; assay type: cell-based; settings: Homo sapiens; HCT-116 cells; 10% FCS; 72 h with compound; Alamar blue 4 h; read-out: pIC50 HCT-116 (converted)
Procedure: as §1, §2

[7] = test system: H1299; test: Cellular proliferation assay (Alamar blue), H1299; assay type: cell-based; settings: Homo sapiens, NCI-H1299, H1299 cells; 10% FCS; 72 h with compound; Alamar blue 4 h; read-out: pIC50 H1299 (converted)
Procedure: as §1, §2

| IC50 [1] [µM] | IC50 [2] [µM] | IC50 [3] [µM] | IC50 [4] [µM] | IC50 [5] [µM] | IC50 [6] [µM] | IC50 [7] [µM] | SMILES |
| --- | --- | --- | --- | --- | --- | --- | --- |
| 1 | 0.0631 | 0.0501 | 0.794 | 1.26 | 0.0794 | 0.2 | COc1ccc(NC(=O)COc2ccc3cc2OCC(=O)N(C)CCCN(C)Cc2c[nH]c4ncnc(c24)N3)cc1 [Compound 129] |
| 2.51 | 0.501 | 0.0794 | 2 | 3.16 | 0.631 | 2 | CCOc1ccc2cc1OCC(=O)N(C)CCCN(C)Cc1c[nH]c3ncnc(c13)N2 [Compound 63] |
| > 10 | > 10 | > 10 | > 10 | > 10 | > 10 | > 10 | COc1ccc2cc1OCC(=O)N[C@@H](C)CN(C)CCCc1c[nH]c3ncnc(c13)N2 [Compound 28] |
| > 10 | > 10 | 5.01 | > 10 | > 10 | > 10 | > 10 | CN1CCCN(C)C(=O)CCc2cc(ccc2N2CCOCC2)Nc2ncnc3[nH]cc(c23)C1 [Compound 56] |
| > 10 | > 10 | 6.31 | > 10 | > 10 | > 10 | > 10 | O=C1CCCOc2cccc(c2)Nc2ncnc3[nH]cc(c23)CN2CCN1CC2 [Compound 107] |
| 2 | 0.794 | 0.0398 | 2.51 | > 10 | 2 | 1.26 | CN1CCCN(C)C(=O)COc2cc(ccc2OC(F)F)Nc2ncnc3[nH]cc(c23)C1 [Compound 76] |
| > 10 | > 10 | 0.126 | > 10 | > 10 | > 10 | > 10 | COc1ccc2cc1OCCCC(=O)N(C)CCN(C)Cc1c[nH]c3ncnc(c13)N2 [Compound 1] |
| 2.51 | 0.316 | 0.0251 | 1.58 | 2 | 0.316 | 1 | COCCOc1ccc2cc1OCC(=O)N(C)CCCN(C)Cc1c[nH]c3ncnc(c13)N2 [Compound 119] |
| > 10 | 5.01 | 0.0794 | 6.31 | > 10 | 7.94 | > 10 | COc1ccc2cc1OCC(=O)N(C(C)C)CCCN(C)Cc1c[nH]c3ncnc(c13)N2 [Compound 12] |
| 3.98 | 1.26 | 0.0794 | 2 | 3.98 | 1.58 | 3.98 | COCCCOc1ccc2cc1OCC(=O)N(C)CCCN(C)Cc1c[nH]c3ncnc(c13)N2 [Compound 132] |
| > 10 | > 10 | 0.794 | > 10 | > 10 | > 10 | > 10 | CN1CCN(C)C(=O)CCCOc2cc(ccc2Cl)Nc2ncnc3[nH]cc(c23)C1 [Compound 42] |
| > 10 | > 10 | 0.631 | > 10 | > 10 | 7.94 | 10 | CN1CCN(C)C(=O)CCc2cccc(c2)Nc2ncnc3[nH]cc(c23)C1 [Compound 20] |
| > 10 | > 10 | 0.398 | > 10 | > 10 | > 10 | > 10 | COc1ccc2cc1OCCCCCC(=O)N(C)CCCN(C)Cc1c[nH]c3ncnc(c13)N2 [Compound 18] |
| > 10 | > 10 | > 10 | > 10 | > 10 | > 10 | > 10 | COCCN1CC(=O)N(C)CCCc2c[nH]c3ncnc(c23)Nc2ccc(OC)c(c2)C1 [Compound 36] |
| > 10 | > 10 | 3.16 | > 10 | > 10 | > 10 | > 10 | CN1CCN(C)C(=O)CCc2cc(ccc2N2CCOCC2)Nc2ncnc3[nH]cc(c23)C1 [Compound 45] |
| 3.16 | 1 | 1.58 | 1.58 | 5.01 | 1.26 | 1 | CN1CC(=O)NCCOc2cccc(c2)Nc2ncnc3[nH]cc(c23)C1 [Compound 23] |
| > 10 | 0.631 | 0.0251 | > 10 | > 10 | 1 | 5.01 | COCCOc1ccc2cc1OCC(=O)N(C)CCCNCc1c[nH]c3ncnc(c13)N2 [Compound 138] |
| 6.31 | 2 |  | 3.16 | 7.94 | 1.58 | 3.98 | COc1ccc2cc1N(C)CC(=O)N(C)CCCN(C)Cc1c[nH]c3ncnc(c13)N2 [Compound 153] |
| 5.01 | 1.58 |  | 3.16 | 10 | 5.01 | 3.98 | Cc1nc2c3c(c[nH]c3n1)CN(C)CCCN(C)C(=O)COc1cc(ccc1Cl)N2 [Compound 148] |
| 5.01 | 0.251 |  | 1 | 5.01 | 0.316 | 0.631 | CN1CCCN(C)C(=O)COc2cc(ccc2OCCOc2cc(C(F)(F)F)ccn2)Nc2ncnc3[nH]cc(c23)C1 [Compound 154] |
| 7.94 | 1.58 |  | 3.16 | > 10 | 2 | 6.31 | CN1CCCN(C)C(=O)COc2cc(ccc2OCCNc2ncccn2)Nc2ncnc3[nH]cc(c23)C1 [Compound 159] |
| > 10 | > 10 |  | > 10 | > 10 | > 10 | > 10 | CCOCCOc1cc(OC)c2cc1OCC(=O)N(C)CCCN(C)Cc1c[nH]c3ncnc(c13)N2 [Compound 151] |
